Experimental data published in patent publication US10287253B2, “Substituted pyrimidines containing acidic groups as TLR7 modulators” (Apros Therapeutics, Inc., priority 2016, dated 2019).

Target: human TLR7 (hTLR7) (Homo sapiens (Human), UniProt Q9NYK1)
Test: HEK TLR7 assay (HEK-Blue hTLR7 cells, NF-kB/AP-1 SEAP reporter)
Assay type: cell-based
Conditions: HEK-Blue hTLR7 cells, 16 h incubation, SEAP read at 620-655 nm
Text: HEK-Blue™ TLR7 cells were purchased from Invivogen (San Diego, Calif.). The following description was taken from the product information sheet.
“HEK-Blue™ hTLR7 cells are designed for studying the stimulation of human TLR7 (hTLR7) by monitoring the activation of NF-kB. HEK-Blue™ hTLR7 cells were obtained by co-transfection of the hTLR7 gene and an optimized secreted embryonic alkaline phosphatase (SEAP) reporter gene into HEK293 cells. The SEAP reporter gene is placed under the control of the IFN-b minimal promoter fused to five NF-kB and AP-1-binding sites. Stimulation with a TLR7 ligand activates NF-kB and AP-1 which induce the production of SEAP, which is detected by the HEK-Blue™ Detection cell culture medium.”
A typical assay protocol involved the following steps: • 1. Cells were cultured according to the product information sheet. • 2. 10 mM compound stock in DMSO were first diluted to 3 mM and then 3-fold serially diluted using DMSO to afford a 10-pt dilution. • 3. 3 μl of the diluted DMSO were added to 57 μl HEK-Blue™ Detection media for a further 20-fold dilution. • 4. 10 μl of the diluted compound in assay media were added into 40 μl cell culture (in HEK-Blue™ Detection media) in 384-well plate. Final cell concentration=8,000 cells per well. • 5. The plates were incubated at 37° C. in 5% CO2 for 16 h. SEAP was determined using a spectrophotometer at 620-655 nm.

human TLR7 (hTLR7), sequence (Q9NYK1 27-1049): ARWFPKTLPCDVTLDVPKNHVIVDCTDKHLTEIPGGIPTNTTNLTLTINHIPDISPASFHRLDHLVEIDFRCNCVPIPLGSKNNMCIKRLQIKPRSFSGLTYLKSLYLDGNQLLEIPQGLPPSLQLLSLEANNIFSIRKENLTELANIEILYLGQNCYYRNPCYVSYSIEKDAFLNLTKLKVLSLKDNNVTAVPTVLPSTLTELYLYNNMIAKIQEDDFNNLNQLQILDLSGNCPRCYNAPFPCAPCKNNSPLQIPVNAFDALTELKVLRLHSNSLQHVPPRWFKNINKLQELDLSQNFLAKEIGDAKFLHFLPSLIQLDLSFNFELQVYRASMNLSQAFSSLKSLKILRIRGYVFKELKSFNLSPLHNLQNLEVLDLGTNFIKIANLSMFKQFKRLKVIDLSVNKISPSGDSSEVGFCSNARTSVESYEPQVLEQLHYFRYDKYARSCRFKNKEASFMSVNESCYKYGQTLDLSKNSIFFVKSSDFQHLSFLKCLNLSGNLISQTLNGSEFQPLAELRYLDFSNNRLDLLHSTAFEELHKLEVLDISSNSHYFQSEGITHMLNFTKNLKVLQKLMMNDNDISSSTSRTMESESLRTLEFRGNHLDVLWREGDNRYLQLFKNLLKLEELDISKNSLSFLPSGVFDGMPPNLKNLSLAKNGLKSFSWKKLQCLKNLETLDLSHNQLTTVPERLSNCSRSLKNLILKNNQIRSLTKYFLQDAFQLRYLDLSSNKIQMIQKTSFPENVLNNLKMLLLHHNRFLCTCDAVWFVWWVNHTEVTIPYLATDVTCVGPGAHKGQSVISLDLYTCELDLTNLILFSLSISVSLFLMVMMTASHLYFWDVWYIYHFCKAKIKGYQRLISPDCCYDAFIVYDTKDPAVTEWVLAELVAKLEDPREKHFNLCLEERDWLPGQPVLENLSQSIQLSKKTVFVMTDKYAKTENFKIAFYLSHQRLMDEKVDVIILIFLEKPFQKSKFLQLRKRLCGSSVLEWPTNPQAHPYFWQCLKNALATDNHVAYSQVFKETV

Compound CCCCNc1nc(N)nc(C)c1Cc1cc(C(=O)NCCCC(=O)O)ccc1OC [Compound 25, 4-(3-((2-amino-4-(butylamino)-6-methylpyrimidin-5-yl)methyl)-4-methoxybenzamido)butanoic acid] has an EC50 of 100 to 1000 nM.
In the case of CCCCNc1nc(N)nc(C)c1Cc1cc(C2(C(=O)O)CC2)ccc1OC [Compound 14, 1-(3-((2-amino-4-(butylamino)-6-methylpyrimidin-5-yl)methyl)-4-methoxyphenyl)cyclopropane-1-carboxylic acid], the EC50 is reported as 1000 to 10000 nM.
Compound CCCCNc1nc(N)nc(CCc2nn[nH]n2)c1Cc1ccccc1OC [Compound 37, 6-(2-(2H-tetrazol-5-yl)ethyl)-N^4-butyl-5-(2-methoxybenzyl)pyrimidine-2,4-diamine] has an EC50 of 100 to 1000 nM.
Compound CCCC[C@@H](CCS(C)(=O)=O)Nc1nc(N)nc(C)c1Cc1cc(CC(=O)O)ccc1OC [Compound 51, (S)-2-(3-((2-amino-4-methyl-6-((1-(methylsulfonyl)heptan-3-yl)amino)pyrimidin-5-yl)methyl)-4-methoxyphenyl)acetic acid] has an EC50 of 100 to 1000 nM.
With CCCCNc1nc(N)nc(C)c1Sc1cc(Cc2nn[nH]n2)ccc1OC [Compound 31, 5-((5-((2H-tetrazol-5-yl)methyl)-2-methoxyphenyl)thio)-N^4-butyl-6-methylpyrimidine-2,4-diamine] the EC50 was 1000 to 10000 nM.
In the case of CCCCNc1nc(N)nc(C)c1Cc1cc(CP(=O)(O)O)ccc1OC [Compound 7, (3-((2-amino-4-(butylamino)-6-methylpyrimidin-5-yl)methyl)-4-methoxybenzyl)phosphonic acid], the EC50 is reported as 1000 to 10000 nM.
Compound CCCC[C@@H](CCSC)Nc1nc(N)nc(CCC(=O)O)c1Cc1cc(Cc2nn[nH]n2)ccc1OC [Compound 48, (S)-3-(5-(5-((2H-tetrazol-5-yl)methyl)-2-methoxybenzyl)-2-amino-6-((1-(methylthio)-heptan-3-yl)amino)pyrimidin-4-yl)propanoic acid] has an EC50 of less than 100 nM.
With CCCCNc1nc(N)nc(C)c1Cc1cc(C(=O)NCCS(=O)(=O)O)ccc1OC [Compound 16, 2-(3-((2-amino-4-(butylamino)-6-methylpyrimidin-5-yl)methyl)-4-methoxybenzamido)ethane-1-sulfonic acid] the EC50 was 100 to 1000 nM.
CCCCNc1nc(N)nc(CCC(=O)O)c1CCc1ccc(OC)cc1 [Compound 19, 3-(2-amino-6-(butylamino)-5-(4-methoxyphenethyl)pyrimidin-4-yl)pro-panoic acid] was tested, and the EC50 was 1000 to 10000 nM.
CCCC(C)Nc1nc(N)nc(C)c1Cc1cc(Cc2nn[nH]n2)ccc1OC (centres unmarked) [Compound 39, 5-(5-((2H-tetrazol-5-yl)methyl)-2-methoxybenzyl)-6-methyl-N^4-(pentan-2-yl)pyrimidine-2,4-diamine] showed an EC50 of 100 to 1000 nM.
Compound CCCCNc1nc(N)nc(C)c1Cc1ccc(Cc2nn[nH]n2)cc1OC [Compound 2, 5-(4-((2H-tetrazol-5-yl)methyl)-2-methoxybenzyl)-N4-butyl-6-methylpyrimidine-2,4-diamine] has an EC50 of 1000 to 10000 nM.
With CCCCNc1nc(N)nc(C)c1Cc1cc(Cc2nnn(CC(=O)O)n2)ccc1OC [Compound 5, 2-(5-(3-((2-amino-4-(butylamino)-6-methylpyrimidin-5-yl)methyl)-4-methoxybenzyl)-2H-tetrazol-2-yl)acetic acid] the EC50 was 1000 to 10000 nM.
In the case of CCCC[C@H](CC(=O)O)Nc1nc(N)nc(C)c1Cc1cc(Cc2nn[nH]n2)ccc1OC [Compound 20C, (R)-3-((5-(5-((2H-tetrazol-5-yl)methyl)-2-methoxybenzyl)-2-amino-6-methylpyrimidin-4-yl)amino)heptanoic acid], the EC50 is reported as 1000 to 10000 nM.
Compound CCCCNc1nc(N)nc(CCCO)c1Cc1ccccc1OC [Compound 47, 3-(2-amino-6-(butylamino)-5-(2-methoxybenzyl)pyrimidin-4-yl)propan-1-ol] has an EC50 of 100 to 1000 nM.
In the case of CCCCNc1nc(N)nc(C)c1Cc1cc(Cc2nnnn2CC(=O)O)ccc1OC [Compound 6, 2-(5-(3-((2-amino-4-(butylamino)-6-methylpyrimidin-5-yl)methyl)-4-methoxybenzyl)-1H-tetrazol-1-yl)acetic acid], the EC50 is reported as 1000 to 10000 nM.
CCCCNc1nc(N)nc(C)c1Cc1ccc(CCC(=O)O)cc1OC [Compound 1, 3-(4-((2-amino-4-(butylamino)-6-methylpyrimidin-5-yl)methyl)-3-methoxyphenyl)propanoic acid] showed an EC50 of 1000 to 10000 nM.
With CCCCNc1nc(N)nc(C)c1Cc1cc(CCC(=O)O)ccc1OC [Compound 4, 3-(3-((2-amino-4-(butylamino)-6-methylpyrimidin-5-yl)methyl)-4-methoxyphenyl)propanoic acid] the EC50 was 1000 to 10000 nM.
CCCCNc1nc(N)nc(C)c1Cc1cc(C(=O)NCCCc2nn[nH]n2)ccc1OC [Compound 28, N-(3-(2H-tetrazol-5-yl)propyl)-3-((2-amino-4-(butylamino)-6-methyl-pyrimidin-5-yl)methyl)-4-methoxybenzamide] showed an EC50 of 1000 to 10000 nM.
CCCC[C@@H](CCO)Nc1nc(N)nc(CCC(=O)O)c1Cc1ccccc1OC [Compound 27, (S)-3-(2-amino-6-((1-hydroxyheptan-3-yl)amino)-5-(2-methoxybenzyl)-pyrimidin-4-yl)propanoic acid] showed an EC50 of 100 to 1000 nM.
Compound CCC[C@@H](CO)Nc1nc(N)nc(C)c1Cc1cc(Cc2nn[nH]n2)ccc1OC [Compound 8, (S)-2-((5-(5-((2H-tetrazol-5-yl)methyl)-2-methoxybenzyl)-2-amino-6-methylpyrimidin-4-yl)amino)pentan-1-ol] has an EC50 of 100 to 1000 nM.
Compound CCCC[C@@H](CCS(C)(=O)=O)Nc1nc(N)nc(CCC(=O)O)c1Cc1cc(CC(=O)O)ccc1OC [Compound 50, (S)-3-(2-amino-5-(5-(carboxymethyl)-2-methoxybenzyl)-6-((1-(methylsulfonyl)heptan-3-yl)amino)pyrimidin-4-yl)propanoic acid] has an EC50 of 100 to 1000 nM.
CCCC[C@@H](CCO)Nc1nc(N)nc(CCC(=O)O)c1OC [Compound 21, (S)-3-(2-amino-6-((1-hydroxyheptan-3-yl)amino)-5-methoxypyrimidin-4-yl)propanoic acid] was tested, and the EC50 was 1000 to 10000 nM.
In the case of CCCC[C@@H](CCc1nn[nH]n1)Nc1nc(N)nc(C)c1Cc1ccccc1OC [Compound 36, (S)—N^4-(1-(2H-tetrazol-5-yl)heptan-3-yl)-S-(2-methoxybenzyl)-6-methylpyrimidine-2,4-diamine], the EC50 is reported as 100 to 1000 nM.
CCCCCNc1nc(N)nc(C)c1Cc1cc(Cc2nn[nH]n2)ccc1OC [Compound 26, 5-(5-((2H-tetrazol-5-yl)methyl)-2-methoxybenzyl)-6-methyl-M-pentylpyrimidine-2,4-diamine] gave an EC50 of 100 to 1000 nM.
CCCC[C@@H](CCOC)Nc1nc(N)nc(CCC(=O)O)c1Cc1cc(Cc2nn[nH]n2)ccc1OC [Compound 49, (S)-3-(5-(5-((2H-tetrazol-5-yl)methyl)-2-methoxybenzyl)-2-amino-6-((1-methoxyheptan-3-yl)amino)pyrimidin-4-yl)propanoic acid] gave an EC50 of 100 to 1000 nM.
CCCC[C@@H](CCSC)Nc1nc(N)nc(CCC(=O)O)c1Cc1ccccc1OC [Compound 38, (S)-3-(2-amino-5-(2-methoxybenzyl)-6-((1-(methylthio)heptan-3-yl)amino)pyrimidin-4-yl)propanoic acid] gave an EC50 of less than 100 nM.
